Where two headings read alike, the source gives them in different places.
Assays:
BTK = target: T1, BTK (Homo sapiens, UniProt Q06187); assay: Inhibitory activity against BTK, ADP-Glo Kinase system (Promega); format: biochemical
T1 construct: purchased Signalchem B10-10H
Summary of the method: (§1)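 IC50 values were fitted from kinase reactions run for 1 h at 30°C with either 1 mM ATP or ATP at Km (10 µM for BTK, 25 µM for ITK). Reactions used 0.2 µg/µl poly(Glu4,Tyr1), recombinant human enzyme (BTK 10 ng, ITK 4 ng per reaction) in Tris pH 7.5 Mn/Mg buffer with 1% DMSO. ADP formed was read by ADP-Glo luminescence.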

ITK = target: T2, ITK (Homo sapiens, UniProt Q08881); assay: Inhibitory activity against ITK, ADP-Glo Kinase system (Promega); format: biochemical
T2 construct: purchased Signalchem I13-11G-10
T2 sequence (Q08881 1-620): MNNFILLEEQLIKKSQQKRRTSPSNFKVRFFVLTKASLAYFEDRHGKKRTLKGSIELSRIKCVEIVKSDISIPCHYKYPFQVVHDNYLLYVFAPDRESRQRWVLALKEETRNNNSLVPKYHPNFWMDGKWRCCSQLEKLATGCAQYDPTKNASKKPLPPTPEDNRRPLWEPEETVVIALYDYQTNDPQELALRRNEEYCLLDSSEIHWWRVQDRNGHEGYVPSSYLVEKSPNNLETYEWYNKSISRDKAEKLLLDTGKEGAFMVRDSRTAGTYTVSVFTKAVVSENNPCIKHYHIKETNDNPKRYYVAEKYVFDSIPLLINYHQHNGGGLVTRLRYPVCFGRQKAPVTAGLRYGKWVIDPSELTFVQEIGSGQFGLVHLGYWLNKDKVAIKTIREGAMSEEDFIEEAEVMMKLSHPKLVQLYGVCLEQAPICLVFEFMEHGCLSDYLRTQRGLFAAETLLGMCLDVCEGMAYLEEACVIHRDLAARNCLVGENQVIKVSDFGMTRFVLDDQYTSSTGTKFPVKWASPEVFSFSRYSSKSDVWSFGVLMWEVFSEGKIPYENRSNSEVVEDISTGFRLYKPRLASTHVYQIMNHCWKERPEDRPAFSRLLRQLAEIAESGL
Summary of the method: as §1

[1] = 1mM ATP, read-out: BTK IC50(nM) 1mM ATP
[2] = 1mM ATP, read-out: ITK IC50(nM) 1mM ATP
[3] = Km ATP (BTK: 10 uM), read-out: BTK IC50(nM) Km ATP
[4] = Km ATP (ITK: 25uM), read-out: ITK IC50(nM) Km ATP

T1 sequence (Q06187 whole entry): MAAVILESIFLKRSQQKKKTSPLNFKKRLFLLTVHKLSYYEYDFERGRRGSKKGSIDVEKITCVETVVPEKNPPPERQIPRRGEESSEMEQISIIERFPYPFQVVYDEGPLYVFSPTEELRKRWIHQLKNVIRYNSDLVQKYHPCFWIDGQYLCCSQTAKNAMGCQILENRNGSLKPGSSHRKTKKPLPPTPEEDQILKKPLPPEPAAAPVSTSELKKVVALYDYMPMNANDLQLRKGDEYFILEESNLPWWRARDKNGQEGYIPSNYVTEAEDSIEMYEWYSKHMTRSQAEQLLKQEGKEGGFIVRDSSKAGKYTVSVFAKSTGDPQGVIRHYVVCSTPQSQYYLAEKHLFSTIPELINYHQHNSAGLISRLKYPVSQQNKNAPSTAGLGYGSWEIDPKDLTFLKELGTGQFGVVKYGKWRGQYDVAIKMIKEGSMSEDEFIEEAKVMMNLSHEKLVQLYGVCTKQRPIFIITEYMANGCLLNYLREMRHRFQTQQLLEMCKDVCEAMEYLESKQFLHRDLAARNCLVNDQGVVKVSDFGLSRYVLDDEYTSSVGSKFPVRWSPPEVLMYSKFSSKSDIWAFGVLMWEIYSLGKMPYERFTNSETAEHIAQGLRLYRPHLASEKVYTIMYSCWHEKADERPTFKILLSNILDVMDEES

Structure (SMILES)	IC50 (BTK; [1])	IC50 (ITK; [2])	IC50 (BTK; [3])	IC50 (ITK; [4])
C=CC(=O)Nc1cccc(-c2nc(Nc3ncc(C)s3)cc3c2ccn3CC(C)C)c1C [Example 62, N-(3-(1-isobutyl-6-((5-methylthiazol-2-yl)amino)-1H-pyrrolo[3,2-c]pyridin-4-yl)-2-methylphenyl)acrylamide]	≤ 20 nM	20 to 100 nM		
C=CC(=O)Nc1ccc(F)c(-c2nc(Nc3ncc(C)s3)cc3c2ccn3CC(C)C)c1 [Example 63, N-(4-fluoro-3-(1-isobutyl-6-((5-methylthiazol-2-yl)amino)-1H-pyrrolo[3,2-c]pyridin-4-yl)phenyl)acrylamide]	20 to 100 nM	100 to 500 nM	≤ 20 nM	20 to 100 nM
C=CC(=O)Nc1cc(-c2nc(Nc3ncc(C)s3)cc3c2ccn3CC2CC2)ccc1F [Example 64, N-(5-(1-(cyclopropylmethyl)-6-((5-methylthiazol-2-yl)amino)-1H-pyrrolo[3,2-c]pyridin-4-yl)-2-fluorophenyl)acrylamide]			≤ 20 nM	≤ 20 nM
C=CC(=O)Nc1cc(-c2nc(Nc3ncc(C)s3)cc3c2ccn3CC2CC2)ccc1C [Example 65, N-(5-(1-(cyclopropylmethyl)-6-((5-methylthiazol-2-yl)amino)-1H-pyrrolo[3,2-c]pyridin-4-yl)-2-methylphenyl)acrylamide]			≤ 20 nM	20 to 100 nM
C=CC(=O)Nc1cc(-c2nc(Nc3ncc(C)s3)cc3c2ccn3CC2CC2)c(F)cc1F [Example 66, N-(5-(1-(cyclopropylmethyl)-6-((5-methylthiazol-2-yl)amino)-1H-pyrrolo[3,2-c]pyridin-4-yl)-2,4-difluorophenyl)acrylamide]	≤ 20 nM	20 to 100 nM	≤ 20 nM	≤ 20 nM
C=CC(=O)Nc1cc(-c2nc(Nc3ncc(C)s3)cc3c2ccn3CC(C)C)c(F)cc1F [Example 67, N-(2,4-difluoro-5-(1-isobutyl-6-((5-methylthiazol-2-yl)amino)-1H-pyrrolo[3,2-c]pyridin-4-yl)phenyl)acrylamide]	≤ 20 nM	20 to 100 nM	≤ 20 nM	≤ 20 nM
C=CC(=O)Nc1ccc(F)c(-c2nc(Nc3ncc(C)s3)cc3c2ccn3[C@@H](C)CC)c1 [Example 68, (S)-N-(3-(1-(sec-butyl)-6-((5-methylthiazol-2-yl)amino)-1H-pyrrolo[3,2-c]pyridin-4-yl)-4-fluorophenyl)acrylamide]	≤ 20 nM	20 to 100 nM		
C=CC(=O)Nc1cc(-c2nc(Nc3ncc(C)s3)cc3c2ccn3CCC(C)(C)C)c(F)cc1F [Example 69, N-(5-(1-(3,3-dimethylbutyl)-6-((5-methylthiazol-2-yl)amino)-1H-pyrrolo[3,2-c]pyridin-4-yl)-2,4-difluorophenyl)acrylamide]	100 to 500 nM	20 to 100 nM		
C=CC(=O)Nc1ccc(F)c(-c2nc(Nc3ncc(C)s3)cc3c2ccn3C2CCCC2)c1 [Example 70, N-(3-(1-cyclopentyl-6-((5-methylthiazol-2-yl)amino)-1H-pyrrolo[3,2-c]pyridin-4-yl)-4-fluorophenyl)acrylamide]	≤ 20 nM	20 to 100 nM		
C=CC(=O)Nc1ccc(F)c(-c2nc(Nc3ncc(C)s3)cc3c2ccn3CC2CCOC2)c1 (centres unmarked) [Example 71, N-(4-fluoro-3-(6-((5-methylthiazol-2-yl)amino)-1-((tetrahydrofuran-3-yl)methyl)-1H-pyrrolo[3,2-c]pyridin-4-yl)phenyl)acrylamide]			≤ 20 nM	≤ 20 nM
C=CC(=O)Nc1cc(-c2nc(Nc3ncc(C)s3)cc3c2ccn3CC2CCOC2)ccc1F (centres unmarked) [Example 72, N-(2-fluoro-5-(6-((5-methylthiazol-2-yl)amino)-1-((tetrahydrofuran-3-yl)methyl)-1H-pyrrolo[3,2-c]pyridin-4-yl)phenyl)acrylamide]			≤ 20 nM	≤ 20 nM
C=CC(=O)Nc1cccc(-c2nc(Nc3ncc(C)s3)cc3c2ccn3CC2CCOCC2)c1F [Example 73, N-(2-fluoro-3-(6-((5-methylthiazol-2-yl)amino)-1-((tetrahydro-2H-pyran-4-yl)methyl)-1H-pyrrolo[3,2-c]pyridin-4-yl)phenyl)acrylamide]			≤ 20 nM	≤ 20 nM
C=CC(=O)Nc1cc(-c2nc(Nc3ncc(C)s3)cc3c2ccn3CC(F)F)ccc1C [Example 74, N-(5-(1-(2,2-difluoroethyl)-6-((5-methylthiazol-2-yl)amino)-1H-pyrrolo[3,2-c]pyridin-4-yl)-2-methylphenyl)acrylamide]			≤ 20 nM	≤ 20 nM
C=CC(=O)Nc1ccc(F)c(-c2nc(Nc3ncc(C)s3)cc3c2ccn3CC(F)F)c1 [Example 75, N-(3-(1-(2,2-difluoroethyl)-6-((5-methylthiazol-2-yl)amino)-1H-pyrrolo[3,2-c]pyridin-4-yl)-4-fluorophenyl)acrylamide]	20 to 100 nM	100 to 500 nM	≤ 20 nM	≤ 20 nM
C=CC(=O)Nc1cc(-c2nc(Nc3ncc(C)s3)cc3c2ccn3CC(F)F)ccc1F [Example 76, N-(5-(1-(2,2-difluoroethyl)-6-((5-methylthiazol-2-yl)amino)-1H-pyrrolo[3,2-c]pyridin-4-yl)-2-fluorophenyl)acrylamide]			≤ 20 nM	20 to 100 nM
C=CC(=O)Nc1cc(-c2nc(Nc3ncc(C)s3)cc3c2ccn3CC(F)(F)F)c(F)cc1F [Example 77, N-(2,4-difluoro-5-(6-((5-methylthiazol-2-yl)amino)-1-(2,2,2-trifluoroethyl)-1H-pyrrolo[3,2-c]pyridin-4-yl)phenyl)acrylamide]	≤ 20 nM	20 to 100 nM		
C=CC(=O)Nc1ccc(F)c(-c2nc(Nc3ncc(C)s3)cc3c2ccn3CC(F)(F)F)c1 [Example 78, N-(4-fluoro-3-(6-((5-methylthiazol-2-yl)amino)-1-(2,2,2-trifluoroethyl)-1H-pyrrolo[3,2-c]pyridin-4-yl)phenyl)acrylamide]	≤ 20 nM	20 to 100 nM		
C=CC(=O)N1CC[C@H](Oc2nc(Nc3ncc(C)s3)cc3c2ccn3C(C)C)C1 [Example 79, (S)-1-(3-((1-isopropyl-6-((5-methylthiazol-2-yl)amino)-1H-pyrrolo[3,2-c]pyridin-4-yl)oxy)pyrrolidin-1-yl)prop-2-en-1-one]	≤ 20 nM	≤ 20 nM	≤ 20 nM	≤ 20 nM
C=CC(=O)N1CC(Oc2nc(Nc3ncc(C)s3)cc3c2ccn3C(C)C)C1 [Example 80, 1-(3-((1-isopropyl-6-((5-methylthiazol-2-yl)amino)-1H-pyrrolo[3,2-c]pyridin-4-yl)oxy)azetidin-1-yl)prop-2-en-1-one]	≤ 20 nM	≤ 20 nM	≤ 20 nM	≤ 20 nM
C=CC(=O)N1CC[C@H](Oc2nc(Nc3ncc(C)s3)cc3c2ccn3CC(C)C)C1 [Example 81, (S)-1-(3-((1-isobutyl-6-((5-methylthiazol-2-yl)amino)-1H-pyrrolo[3,2-c]pyridin-4-yl)oxy)pyrrolidin-1-yl)prop-2-en-1-one]	≤ 20 nM	≤ 20 nM		
C=CC(=O)N1C[C@H](F)[C@H](Oc2nc(Nc3ncc(C)s3)cc3c2ccn3C(C)C)C1 [Example 83, 1-((3S,4R)-3-fluoro-4-((1-isopropyl-6-((5-methylthiazol-2-yl)amino)-1H-pyrrolo[3,2-c]pyridin-4-yl)oxy)pyrrolidin-1-yl)prop-2-en-1-one]	≤ 20 nM	≤ 20 nM		
C=CC(=O)N1CCC[C@H](Oc2nc(Nc3ncc(C)s3)cc3c2ccn3C(C)C)C1 [Example 84, (S)-1-(3-((1-isopropyl-6-((5-methylthiazol-2-yl)amino)-1H-pyrrolo[3,2-c]pyridin-4-yl)oxy)piperidin-1-yl)prop-2-en-1-one]	≤ 20 nM	20 to 100 nM		
C=CC(=O)N1CCC[C@H]1COc1nc(Nc2ncc(C)s2)cc2c1ccn2CC(C)C [Example 85, (S)-1-(2-(((1-isobutyl-6-((5-methylthiazol-2-yl)amino)-1H-pyrrolo[3,2-c]pyridin-4-yl)oxy)methyl)pyrrolidin-1-yl)prop-2-en-1-one]	20 to 100 nM	> 500 nM		
C=CC(=O)N1CC[C@H]1COc1nc(Nc2ncc(C)s2)cc2c1ccn2C(C)C [Example 86, (S)-1-(2-(((1-isopropyl-6-((5-methylthiazol-2-yl)amino)-1H-pyrrolo[3,2-c]pyridin-4-yl)oxy)methyl)azetidin-1-yl)prop-2-en-1-one]	≤ 20 nM	20 to 100 nM		
C=CC(=O)N1C[C@@H](Oc2nc(Nc3ncc(C)s3)cc3c2ccn3C(C)C)C[C@H]1C [Example 87, 1-((2R,4S)-4-((1-isopropyl-6-((5-methylthiazol-2-yl)amino)-1H-pyrrolo[3,2-c]pyridin-4-yl)oxy)-2-methylpyrrolidin-1-yl)prop-2-en-1-one]	≤ 20 nM	≤ 20 nM		

From patent publication EP4707277A1, “NOVEL HETEROCYCLIC AMINE DERIVATIVES AND PHARMACEUTICAL COMPOSITION COMPRISING SAME” (Daewoong Pharmaceutical Co., Ltd., priority 2023, dated 2024)
